Measured values published in patent publication US12077503B2, “Substituted cyclic amides and their use as herbicides” (FMC CORPORATION, priority 2015, dated 2024).

Assays:
Assay type in all cases: in vivo
[1] = system: velvetleaf (Abutilon theophrasti); assay: Test G Pre-Emergence Protocol; conditions: Abutilon theophrasti, pre-emergence, 312 h, evaluated after 13 days
Method in brief: (§1)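 Visual injury (0–100) at day 13 after a single pre-emergence spray. Rates: 15.625, 62.5, 250 g/ha in acetone–water 50:50 with 0.5% Tween 20. Growth conditions: 24/16° C, 14 h light, 65% humidity.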

[2] = system: ivy-leaved morning glory (Ipomoea hederacea); assay: Test G Pre-Emergence Protocol; conditions: Ipomoea, pre-emergence, 312 h, evaluated after 13 days
Method in brief: as §1

[3] = system: redroot pigweed (Amaranthus retroflexus); assay: Test G Pre-Emergence Protocol; conditions: Amaranthus retroflexus, pre-emergence, 312 h, evaluated after 13 days
Method in brief: as §1

corn (Zea mays) [4] = assay: Test G Pre-Emergence Protocol; conditions: Zea mays, pre-emergence, 312 h, evaluated after 13 days
Method in brief: as §1

[5] = system: giant foxtail (Setaria faberi); assay: Test G Pre-Emergence Protocol; conditions: Setaria faberi, pre-emergence, 312 h, evaluated after 13 days
Method in brief: as §1

[6] = system: barnyardgrass (Echinochloa crus-galli); assay: Test G Pre-Emergence Protocol; conditions: Echinochloa crus-galli, pre-emergence, 312 h, evaluated after 13 days
Method in brief: as §1

[7] = system: velvetleaf (Abutilon theophrasti); assay: Test G Post-Emergence Protocol; conditions: Abutilon theophrasti, post-emergence, 312 h
Method in brief: (§2)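 Values are percent visual injury at 13 days after treatment (0 none, 100 total). Treatment was a post-emergence spray at 15.625, 62.5 or 250 g/ha on 8-day-old pot plants kept at 24/16 °C.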

[8] = system: ivy-leaved morning glory (Ipomoea hederacea); assay: Test G Post-Emergence Protocol; conditions: Ipomoea, post-emergence, 312 h
Method in brief: as §2

[9] = system: redroot pigweed (Amaranthus retroflexus); assay: Test G Post-Emergence Protocol; conditions: Amaranthus retroflexus, post-emergence, 312 h
Method in brief: as §2

corn (Zea mays) [10] = assay: Test G Post-Emergence Protocol; conditions: Zea mays, post-emergence, 312 h
Method in brief: as §2

[11] = system: giant foxtail (Setaria faberi); assay: Test G Post-Emergence Protocol; conditions: Setaria faberi, post-emergence, 312 h
Method in brief: as §2

[12] = system: barnyardgrass (Echinochloa crus-galli); assay: Test G Post-Emergence Protocol; conditions: Echinochloa crus-galli, post-emergence, 312 h
Method in brief: as §2

CN1C[C@@H](c2ccc(C(F)(F)F)cc2)[C@H](C(=O)Nc2nn[nH]n2)C1=O (racemic) [Compound 1612]
0%: pest or weed control at 15.625 g/ha ([1]; 15.625 g ai/ha, read-out: Velvetleaf damage rating (100=total damage to plant; 0=no damage to plant)) | pest or weed control at 62.5 g/ha ([1]; 62.5 g ai/ha, 100=total damage to plant, 0=no damage to plant, read-out: plant damage rating, Velvetleaf) | pest or weed control at 250 g/ha ([1]; 250 g ai/ha, read-out: Velvetleaf damage rating (100=total damage to plant; 0=no damage to plant)) | pest or weed control at 15.625 g/ha ([2]; 15.625 g ai/ha, read-out: Morning-glory, Ivy-leaved damage rating (100=total damage to plant; 0=no damage to plant)) | pest or weed control at 62.5 g/ha ([2]; 62.5 g ai/ha, 100=total damage to plant, 0=no damage to plant, read-out: plant damage rating, Morningglory, Ivy-leaved) | pest or weed control at 250 g/ha ([2]; 250 g ai/ha, read-out: Morningglory, Ivy-leaved damage rating (100=total damage to plant; 0=no damage to plant)) | pest or weed control at 15.625 g/ha ([3]; 15.625 g ai/ha, read-out: Pigweed, Redroot damage rating (100=total damage to plant; 0=no damage to plant)) | pest or weed control at 62.5 g/ha ([3]; 62.5 g ai/ha, 100=total damage to plant, 0=no damage to plant, read-out: plant damage rating, Pigweed, Redroot) | pest or weed control at 250 g/ha ([3]; 250 g ai/ha, read-out: Pigweed, Redroot damage rating (100=total damage to plant; 0=no damage to plant)) | plant injury at 15.625 g/ha (corn (Zea mays) [4]; 15.625 g ai/ha, read-out: Corn damage rating (100=total damage to plant; 0=no damage to plant)) | plant injury at 62.5 g/ha (corn (Zea mays) [4]; 62.5 g ai/ha, 100=total damage to plant, 0=no damage to plant, read-out: plant damage rating, Corn) | plant injury at 250 g/ha (corn (Zea mays) [4]; 250 g ai/ha, read-out: Corn damage rating (100=total damage to plant; 0=no damage to plant)) | pest or weed control at 15.625 g/ha ([5]; 15.625 g ai/ha, read-out: Foxtail, Giant damage rating (100=total damage to plant; 0=no damage to plant)) | pest or weed control at 62.5 g/ha ([5]; 62.5 g ai/ha, 100=total damage to plant, 0=no damage to plant, read-out: plant damage rating, Foxtail, Giant) | pest or weed control at 250 g/ha ([5]; 250 g ai/ha, read-out: Foxtail, Giant damage rating (100=total damage to plant; 0=no damage to plant)) | pest or weed control at 15.625 g/ha ([6]; 15.625 g ai/ha, read-out: Barnyard grass damage rating (100=total damage to plant; 0=no damage to plant)) | pest or weed control at 62.5 g/ha ([6]; 62.5 g ai/ha, 100=total damage to plant, 0=no damage to plant, read-out: plant damage rating, Barnyardgrass) | pest or weed control at 250 g/ha ([6]; 250 g ai/ha, read-out: Barnyardgrass damage rating (100=total damage to plant; 0=no damage to plant)) | pest or weed control at 15.625 g/ha ([7]; 15.625 g ai/ha, evaluated after 13 days (100=total damage to plant; 0=no damage to plant), read-out: Velvetleaf damage rating) | pest or weed control at 62.5 g/ha ([7]; 62.5 g ai/ha, evaluated after 13 days, read-out: Velvetleaf damage rating (100=total damage to plant; 0=no damage to plant)) | pest or weed control at 250 g/ha ([7]; 250 g ai/ha, evaluated after 13 days, read-out: damage to plant, Velvetleaf (100=total damage to plant; 0=no damage to plant)) | pest or weed control at 15.625 g/ha ([8]; 15.625 g ai/ha, evaluated after 13 days (100=total damage to plant; 0=no damage to plant), read-out: Morningglory, Ivy-leaved damage rating) | pest or weed control at 62.5 g/ha ([8]; 62.5 g ai/ha, evaluated after 13 days, read-out: Morningglory, Ivy-leaved damage rating (100=total damage to plant; 0=no damage to plant)) | pest or weed control at 250 g/ha ([8]; 250 g ai/ha, evaluated after 13 days, read-out: damage to plant, Morningglory, Ivy-leaved (100=total damage to plant; 0=no damage to plant)) | pest or weed control at 15.625 g/ha ([9]; 15.625 g ai/ha, evaluated after 13 days (100=total damage to plant; 0=no damage to plant), read-out: Pigweed, Redroot damage rating) | pest or weed control at 62.5 g/ha ([9]; 62.5 g ai/ha, evaluated after 13 days, read-out: Pigweed, Redroot damage rating (100=total damage to plant; 0=no damage to plant)) | pest or weed control at 250 g/ha ([9]; 250 g ai/ha, evaluated after 13 days, read-out: damage to plant, Pigweed, Redroot (100=total damage to plant; 0=no damage to plant)) | plant injury at 15.625 g/ha (corn (Zea mays) [10]; 15.625 g ai/ha, evaluated after 13 days (100=total damage to plant; 0=no damage to plant), read-out: Corn damage rating) | plant injury at 62.5 g/ha (corn (Zea mays) [10]; 62.5 g ai/ha, evaluated after 13 days, read-out: Corn damage rating (100=total damage to plant; 0=no damage to plant)) | plant injury at 250 g/ha (corn (Zea mays) [10]; 250 g ai/ha, evaluated after 13 days, read-out: damage to plant, Corn (100=total damage to plant; 0=no damage to plant)) | pest or weed control at 15.625 g/ha ([11]; 15.625 g ai/ha, evaluated after 13 days (100=total damage to plant; 0=no damage to plant), read-out: Foxtail, Giant damage rating) | pest or weed control at 62.5 g/ha ([11]; 62.5 g ai/ha, evaluated after 13 days, read-out: Foxtail, Giant damage rating (100=total damage to plant; 0=no damage to plant)) | pest or weed control at 250 g/ha ([11]; 250 g ai/ha, evaluated after 13 days, read-out: damage to plant, Foxtail, Giant (100=total damage to plant; 0=no damage to plant)) | pest or weed control at 15.625 g/ha ([12]; 15.625 g ai/ha, evaluated after 13 days (100=total damage to plant; 0=no damage to plant), read-out: Barnyardgrass damage rating) | pest or weed control at 62.5 g/ha ([12]; 62.5 g ai/ha, evaluated after 13 days, read-out: Barnyardgrass damage rating (100=total damage to plant; 0=no damage to plant)) | pest or weed control at 250 g/ha ([12]; 250 g ai/ha, evaluated after 13 days, read-out: damage to plant, Barnyardgrass (100=total damage to plant; 0=no damage to plant))
